Results on 13 compounds are retold here after ChEMBL document CHEMBL1132911, “Cytotoxic halogenoacrylic derivatives of distamycin A” (Bioorg Med Chem Lett, 2000).

Assay [1] relates to L1210. Kind of assay: In vitro cytotoxicity was measured after 4 hr of exposure against L1210 murine leukemia cells. It is filed as functional, Mus musculus.
For assay [2], the system named is L1210. Kind of assay: In vitro cytotoxicity was measured after 48 hr of exposure against L1210 murine leukemia cells. It is filed as functional, cell-based. Particulars: Mus musculus, L1210, 48 h.
The subject of assay [3] is Mus musculus. Kind of assay: In vivo antileukemic activity against L1210 murine leukemia cell after intravenous administration in mice expressed as optimal (non toxic) dose. It is filed as functional.
In assay [4] the test system is Mus musculus. Kind of assay: In vivo antileukemic activity against L1210 murine leukemia in mice after iv administration of compound expressed as T/C ie median survival time of treated versus untreated mice (10). It is filed as functional.
Assay [5] has as its system Mus musculus. Briefly: In vivo antileukemic activity against L1210 murine leukemia after intravenous administration in mice expressed as optimal (non toxic) dose. It is filed as functional.

pIC50: −log10 of the molar value.

`Cl.Cn1cc(NC(=O)c2cc(NC(=O)c3cc(NC(=O)/C=C\Cl)cn3C)cn2C)cc1C(=O)NCCC(=N)N` came in with an IPol in the assay with L1210 [1] of over 50 µM. The compound `C=CC(=O)Nc1cc(C(=O)Nc2cc(C(=O)Nc3cc(C(=O)NCCC(=N)N)n(C)c3)n(C)c2)n(C)c1.Cl` showed an IPol with L1210 [1] of over 50 µM. One may read the pIC50 as the IC50 on a negative log10 scale, so that one unit is a factor of ten. Regarding `C=C(F)C(=O)Nc1cc(C(=O)Nc2cc(C(=O)Nc3cc(C(=O)Nc4cc(C(=O)NCCC(=N)N)n(C)c4)n(C)c3)n(C)c2)n(C)c1`, in the assay on L1210 [2], the pIC50 was under 6.15.

`C=C(Br)C(=O)Nc1cc(C(=O)Nc2cc(C(=O)NCCC(=N)N)n(C)c2)n(C)c1` had a pIC50 with L1210 [2] of under 5.89. One may read the T/C as the result in the treated group divided by that in the control group, in per cent. For the compound `C=C(Cl)C(=O)Nc1cc(C(=O)Nc2cc(C(=O)Nc3cc(C(=O)NCCC(=N)N)n(C)c3)n(C)c2)n(C)c1.Cl`, the IPol in the assay on L1210 [1] came to 1.47 µM. The OD in the assay on Mus musculus [3] turned out to be 12.5 mg/kg. Also, in the assay on Mus musculus [4], the T/C is recorded as 117%. As for `C=C(Br)CNc1cc(C(=O)Nc2cc(C(=O)Nc3cc(C(=O)NCCC(=N)N)n(C)c3)n(C)c2)n(C)c1`, in the assay on L1210 [2], the pIC50 was under 5.80. The compound `Cl.Cn1cc(NC(=O)c2cc(NC(=O)c3cc(NC(=O)/C=C/Cl)cn3C)cn2C)cc1C(=O)NCCC(=N)N` gave an IPol with L1210 [1] of over 100 µM. In the assay with L1210 [1], `C=C(Br)C(=O)Nc1cc(C(=O)Nc2cc(C(=O)Nc3cc(C(=O)NCCC(=N)N)n(C)c3)n(C)c2)n(C)c1.Cl` returned an IPol of 0.1035 µM. The same compound came in with an OD in the assay with Mus musculus [5] of 12.5 mg/kg. In the assay with Mus musculus [4], the T/C turned out to be 100%. In the case of `C=C(Br)C(=O)Nc1cc(C(=O)Nc2cc(C(=O)Nc3cc(C(=O)Nc4cc(C(=O)Nc5cc(C(=O)NCCC(=N)N)n(C)c5)n(C)c4)n(C)c3)n(C)c2)n(C)c1.Cl`, the pIC50 in the assay with L1210 [2] is 7.64. The compound further returned an OD in the assay on Mus musculus [3] of 0.78 mg/kg. Moreover, the T/C in the assay on Mus musculus [4] was found to be 167%.

As to `C=C(Br)C(=O)Nc1cc(C(=O)NCCC(=N)N)n(C)c1`, the pIC50 with L1210 [2] is under 4.89.

As to `C=C(Br)C(=O)Nc1cc(C(=O)Nc2cc(C(=O)Nc3cc(C(=O)Nc4cc(C(=O)NCCC(=N)N)n(C)c4)n(C)c3)n(C)c2)n(C)c1.Cl`, the OD in the assay on Mus musculus [3] was determined as 1.56 mg/kg. This compound also came in with a T/C in the assay with Mus musculus [4] of 200%.

On to `C=C(Cl)C(=O)Nc1cc(C(=O)Nc2cc(C(=O)Nc3cc(C(=O)Nc4cc(C(=O)NCCC(=N)N)n(C)c4)n(C)c3)n(C)c2)n(C)c1.Cl`, for which the pIC50 with L1210 [2] is 8.42. The OD in the assay with Mus musculus [3] was determined as 1.56 mg/kg. This compound also showed a T/C in the assay with Mus musculus [4] of 133%. As to `C=C(F)C(=O)Nc1cc(C(=O)Nc2cc(C(=O)Nc3cc(C(=O)NCCC(=N)N)n(C)c3)n(C)c2)n(C)c1`, the pIC50 in the assay on L1210 [2] is under 6.10.
